Measurements published in patent US12077503B2, “Substituted cyclic amides and their use as herbicides” (FMC CORPORATION, priority 2015, dated 2024).

Legend:
Assay type in all cases: in vivo
[1] = tested on: pigweed (Amaranthus retroflexus); experiment: Test A preemergence; settings: Amaranthus retroflexus, pre-emergence, 240 h, 0 to 100 scale (0 no effect, 100 complete control), read-out: Plant response rating, Pigweed; for pest or weed control at 500 g/ha: 500 g ai/ha, preemergence; for pest or weed control at 125 g/ha: Preemergence, 125 g ai/ha
[2] = tested on: giant foxtail (Setaria faberii); experiment: Test A preemergence; settings: Setaria faberi, pre-emergence, 240 h, 0 to 100 scale (0 no effect, 100 complete control), read-out: Plant response rating, Foxtail, Giant; for pest or weed control at 500 g/ha: 500 g ai/ha, preemergence; for pest or weed control at 125 g/ha: Preemergence, 125 g ai/ha
Method in brief: (§1)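 Preemergence soil spray on seeded pots or post-emergence spray on 1–2 leaf plants, in loam–sand blend. Greenhouse ~10 d. Visual rating 0–100 against untreated plants.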

Kochia (Kochia scoparia) [3] = experiment: Test A preemergence; settings: Bassia scoparia, pre-emergence, 240 h, 0 to 100 scale (0 no effect, 100 complete control), read-out: Plant response rating, Kochia; for pest or weed control at 500 g/ha: 500 g ai/ha, preemergence; for pest or weed control at 125 g/ha: Preemergence, 125 g ai/ha
Method in brief: as §1

[4] = tested on: ragweed (common ragweed, Ambrosia elatior); experiment: Test A preemergence; settings: Ambrosia artemisiifolia, pre-emergence, 240 h, 0 to 100 scale (0 no effect, 100 complete control), read-out: Plant response rating, Ragweed; for pest or weed control at 500 g/ha: 500 g ai/ha, preemergence; for pest or weed control at 125 g/ha: Preemergence, 125 g ai/ha
Method in brief: as §1

[5] = tested on: barnyardgrass (Echinochloa crus-galli); experiment: Test A preemergence; settings: Echinochloa crus-galli, pre-emergence, 240 h, 0 to 100 scale (0 no effect, 100 complete control), read-out: Plant response rating, Barnyardgrass; for pest or weed control at 500 g/ha: 500 g ai/ha, preemergence; for pest or weed control at 125 g/ha: Preemergence, 125 g ai/ha
Method in brief: as §1

[6] = tested on: ryegrass, Italian (Italian ryegrass, Lolium multiflorum); experiment: Test A preemergence; settings: Lolium multiflorum, pre-emergence, 240 h, 0 to 100 scale (0 no effect, 100 complete control), read-out: Plant response rating, Ryegrass, Italian; for pest or weed control at 500 g/ha: 500 g ai/ha, preemergence; for pest or weed control at 125 g/ha: Preemergence, 125 g ai/ha
Method in brief: as §1

[7] = tested on: pigweed (Amaranthus retroflexus); experiment: Test A postemergence; settings: Amaranthus retroflexus, post-emergence, 240 h, Postemergence, read-out: Plant response rating, Pigweed; for pest or weed control at 125 g/ha: 125 g ai/ha, visual injury after approx. 10 d, 0 to 100 scale, 0 no effect, 100 complete control; for pest or weed control at 500 g/ha: 500 g ai/ha, visual injury, 0 to 100 scale (0 no effect, 100 complete control), approx. 10 d
Method in brief: as §1

corn (Zea mays) = experiment: Test A postemergence; settings: Zea mays, post-emergence, 240 h, Postemergence; for Corn plant response rating (crop injury, 0 = no effect, 100 = complete kill) at 125 g/ha: 125 g ai/ha, visual injury after approx. 10 d, 0 to 100 scale, 100 complete control; for Corn plant response rating (crop injury, 0 = no effect, 100 = complete kill) at 500 g/ha: 500 g ai/ha, visual injury, 0 to 100 scale (0 no effect, 100 complete control), approx. 10 d
Method in brief: as §1

[8] = tested on: giant foxtail (Setaria faberii); experiment: Test A postemergence; settings: Setaria faberi, post-emergence, 240 h, Postemergence, read-out: Plant response rating, Foxtail, Giant; for pest or weed control at 125 g/ha: 125 g ai/ha, visual injury after approx. 10 d, 0 to 100 scale, 0 no effect, 100 complete control; for pest or weed control at 500 g/ha: 500 g ai/ha, visual injury, 0 to 100 scale (0 no effect, 100 complete control), approx. 10 d
Method in brief: as §1

[9] = tested on: Galium (catchweed bedstraw, Galium aparine); experiment: Test A postemergence; settings: Galium, post-emergence, 240 h, Postemergence, read-out: Plant response rating, Galium; for pest or weed control at 125 g/ha: 125 g ai/ha, visual injury after approx. 10 d, 0 to 100 scale, 0 no effect, 100 complete control; for pest or weed control at 500 g/ha: 500 g ai/ha, visual injury, 0 to 100 scale (0 no effect, 100 complete control), approx. 10 d
Method in brief: as §1

Kochia (Kochia scoparia) [10] = experiment: Test A postemergence; settings: Bassia scoparia, post-emergence, 240 h, Postemergence, read-out: Plant response rating, Kochia; for pest or weed control at 125 g/ha: 125 g ai/ha, visual injury after approx. 10 d, 0 to 100 scale, 0 no effect, 100 complete control; for pest or weed control at 500 g/ha: 500 g ai/ha, visual injury, 0 to 100 scale (0 no effect, 100 complete control), approx. 10 d
Method in brief: as §1

[11] = tested on: blackgrass (Alopecurus myosuroides); experiment: Test A postemergence; settings: Alopecurus myosuroides, post-emergence, 240 h, Postemergence, read-out: Plant response rating, Blackgrass; for pest or weed control at 125 g/ha: 125 g ai/ha, visual injury after approx. 10 d, 0 to 100 scale, 0 no effect, 100 complete control; for pest or weed control at 500 g/ha: 500 g ai/ha, visual injury, 0 to 100 scale (0 no effect, 100 complete control), approx. 10 d
Method in brief: as §1

[12] = tested on: ragweed (common ragweed, Ambrosia elatior); experiment: Test A postemergence; settings: Ambrosia artemisiifolia, post-emergence, 240 h, Postemergence, read-out: Plant response rating, Ragweed; for pest or weed control at 125 g/ha: 125 g ai/ha, visual injury after approx. 10 d, 0 to 100 scale, 0 no effect, 100 complete control; for pest or weed control at 500 g/ha: 500 g ai/ha, visual injury, 0 to 100 scale (0 no effect, 100 complete control), approx. 10 d
Method in brief: as §1

[13] = tested on: barnyardgrass (Echinochloa crus-galli); experiment: Test A postemergence; settings: Echinochloa crus-galli, post-emergence, 240 h, Postemergence, read-out: Plant response rating, Barnyardgrass; for pest or weed control at 125 g/ha: 125 g ai/ha, visual injury after approx. 10 d, 0 to 100 scale, 0 no effect, 100 complete control; for pest or weed control at 500 g/ha: 500 g ai/ha, visual injury, 0 to 100 scale (0 no effect, 100 complete control), approx. 10 d
Method in brief: as §1

[14] = tested on: ryegrass, Italian (Italian ryegrass, Lolium multiflorum); experiment: Test A postemergence; settings: Lolium multiflorum, post-emergence, 240 h, Postemergence, read-out: Plant response rating, Ryegrass, Italian; for pest or weed control at 125 g/ha: 125 g ai/ha, visual injury after approx. 10 d, 0 to 100 scale, 0 no effect, 100 complete control; for pest or weed control at 500 g/ha: 500 g ai/ha, visual injury, 0 to 100 scale (0 no effect, 100 complete control), approx. 10 d
Method in brief: as §1

## O=C1NC[C@H](c2cccc(C(F)(F)F)n2)[C@H]1C(=O)Nc1cccc(F)c1F [Compound 1385]
[1]
  pest or weed control at 500 g/ha: 0%
  pest or weed control at 125 g/ha: 0%
[2]
  pest or weed control at 500 g/ha: 90%
  pest or weed control at 125 g/ha: 90%
Kochia (Kochia scoparia) [3]
  pest or weed control at 500 g/ha: 20%
  pest or weed control at 125 g/ha: 0%
[4]
  pest or weed control at 500 g/ha: 0%
  pest or weed control at 125 g/ha: 0%
[5]
  pest or weed control at 500 g/ha: 90%
  pest or weed control at 125 g/ha: 90%
[6]
  pest or weed control at 500 g/ha: 0%
  pest or weed control at 125 g/ha: 0%
[7]
  pest or weed control at 125 g/ha: 0%
  pest or weed control at 500 g/ha: 0%
Corn (Zea mays)
  Corn plant response rating (crop injury, 0 = no effect, 100 = complete kill) at 125 g/ha: 0%
  Corn plant response rating (crop injury, 0 = no effect, 100 = complete kill) at 500 g/ha: 20%
[8]
  pest or weed control at 125 g/ha: 70%
  pest or weed control at 500 g/ha: 90%
[9]
  pest or weed control at 125 g/ha: 30%
  pest or weed control at 500 g/ha: 50%
Kochia (Kochia scoparia) [10]
  pest or weed control at 125 g/ha: 0%
  pest or weed control at 500 g/ha: 0%
[11]
  pest or weed control at 125 g/ha: 20%
  pest or weed control at 500 g/ha: 20%
[12]
  pest or weed control at 125 g/ha: 0%
  pest or weed control at 500 g/ha: 0%
[13]
  pest or weed control at 125 g/ha: 80%
  pest or weed control at 500 g/ha: 90%
[14]
  pest or weed control at 125 g/ha: 0%
  pest or weed control at 500 g/ha: 20%

## CSc1ccccc1NC(=O)[C@H]1C(=O)N(C)C[C@@H]1c1ccc(C(F)(F)F)cc1 [Compound 1391]
[1]
  pest or weed control at 500 g/ha: 90%
  pest or weed control at 125 g/ha: 90%
[2]
  pest or weed control at 500 g/ha: 100%
  pest or weed control at 125 g/ha: 100%
Kochia (Kochia scoparia) [3]
  pest or weed control at 500 g/ha: 90%
  pest or weed control at 125 g/ha: 90%
[4]
  pest or weed control at 500 g/ha: 90%
  pest or weed control at 125 g/ha: 90%
[5]
  pest or weed control at 500 g/ha: 100%
  pest or weed control at 125 g/ha: 90%
[6]
  pest or weed control at 500 g/ha: 70%
  pest or weed control at 125 g/ha: 30%
[7]
  pest or weed control at 125 g/ha: 70%
  pest or weed control at 500 g/ha: 90%
Corn (Zea mays)
  Corn plant response rating (crop injury, 0 = no effect, 100 = complete kill) at 125 g/ha: 0%
  Corn plant response rating (crop injury, 0 = no effect, 100 = complete kill) at 500 g/ha: 80%
[8]
  pest or weed control at 125 g/ha: 90%
  pest or weed control at 500 g/ha: 90%
[9]
  pest or weed control at 125 g/ha: 70%
  pest or weed control at 500 g/ha: 70%
Kochia (Kochia scoparia) [10]
  pest or weed control at 125 g/ha: 70%
  pest or weed control at 500 g/ha: 80%
[11]
  pest or weed control at 125 g/ha: 40%
  pest or weed control at 500 g/ha: 70%
[12]
  pest or weed control at 125 g/ha: 20%
  pest or weed control at 500 g/ha: 60%
[13]
  pest or weed control at 125 g/ha: 90%
  pest or weed control at 500 g/ha: 100%
[14]
  pest or weed control at 125 g/ha: 40%
  pest or weed control at 500 g/ha: 60%
